This note sets out measurements from US8853193B2, “Thienopyrimidines containing a substituted alkyl group for pharmaceutical compositions” (Boehringer Ingelheim International GmbH, priority 2010, dated 2014).

Where a name gives a salt, the structure may show the parent alone.

human Mnk2a, sequence (Q9HBH9 whole entry): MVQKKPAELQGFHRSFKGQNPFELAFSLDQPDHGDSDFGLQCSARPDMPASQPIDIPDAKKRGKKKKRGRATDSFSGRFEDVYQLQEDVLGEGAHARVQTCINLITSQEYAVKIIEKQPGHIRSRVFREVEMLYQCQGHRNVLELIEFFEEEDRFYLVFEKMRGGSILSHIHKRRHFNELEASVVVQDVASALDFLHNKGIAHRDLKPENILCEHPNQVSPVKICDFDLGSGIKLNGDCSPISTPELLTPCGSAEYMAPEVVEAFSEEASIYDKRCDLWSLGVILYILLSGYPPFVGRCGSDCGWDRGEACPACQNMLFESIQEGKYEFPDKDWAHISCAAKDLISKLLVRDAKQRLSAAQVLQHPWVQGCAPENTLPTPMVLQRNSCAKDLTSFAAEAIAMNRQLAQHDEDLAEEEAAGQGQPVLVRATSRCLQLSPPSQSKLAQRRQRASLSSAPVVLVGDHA

The target in the test is human Mnk2a (Homo sapiens (Human), UniProt Q9HBH9). Nature of the test: Mnk2a in vitro kinase assay (indirect competitive fluorescence polarization). The following applies: pre-activated GST-Mnk2a 2.5 nM, 20 μM ATP, 30 μM substrate peptide; read-out: MNK2 IC50. Format: biochemical. As for the experimental part:
Inhibitory potency of compounds against Mnk1, Mnk2a and other kinases was assessed with assays based on a format known to those skilled in the art as the indirect (competitive) fluorescence polarization. The assay detection system comprises a small fluorophore-labeled phospho-peptide (termed ligand) bound to a phospho-specific antibody. The product generated by the kinase reaction competes with the ligand for antibody binding. Based on the larger molecular volume of the bound ligand, which results in a lower rotation rate in solution, its emitted light has a higher degree of polarization than the one from the free ligand.
In brief, the open reading frames of human Mnk1 and Mnk2a were amplified from cDNA using the forward/reverse primer pairs
(utilized restriction sites underlined), respectively, and cloned into the BamHI and SalI sites of the vector pGEX-4T1 (Amersham, Sweden, cat. no. 27-4580-01). These constructs allow prokaryotic expression of Mnk1 or Mnk2a as fusion protein with a N-terminal glutathione S-transferase (GST) tag, referred to as GST-Mnk1 or GST-Mnk2a. The following expression and purification procedure was identical for GST-Mnk1 and GST-Mnk2a, referring in general to GST-Mnk, when not distinguishing between the two isoforms. Expression of GST-Mnk was in E. coli BL21 (Merck Biosciences, Germany, cat. no. 69449). Cells were grown in LB-Bouillon (Merck, Germany, cat. no. 1.10285) supplemented with 100 μg/ml ampicillin (Sigma, Germany, cat. no. A9518) at 37° C. […] Cells harvested by centrifugation were resuspended in 10 ml lysis buffer (50 mM tris(hydroxymethyl)aminomethane hydrochloride (Tris/HCl, Sigma, Germany, cat. no. T5941) pH 7.5, 300 mM sodium chloride (NaCl, Sigma, Germany, cat. no. S7653), 5% (w/v) glycerol (Sigma, Germany, cat. no. G5516), 3 mM DTT dithiotreitol (DTT, Sigma, Germany, cat. no. D9779)) per gram wet weight cell pellet. Lysates were prepared by disruption of cells with a sonifier and subsequent clearing by centrifugation at 38000 g for 45 min at 4° C.
The lysate was applied to a GSTPrep FF 16/10 column (Amersham, Sweden, cat. no. 17-5234-01) equilibrated with lysis buffer. Removal of unbound material was with 3 column volumes (CV) lysis buffer. Elution was with 2 CV of elution buffer (50 mM Tris/HCl pH 7.5, 300 mM NaCl, 5% (w/v) glycerol, 20 mM glutathione (Sigma, Germany, cat. no. G4251)). Peak fractions were pooled and the protein transferred into storage buffer (50 mM Tris/HCl pH 7.5, 200 mM NaCl, 0.1 mM ethylene glycol[…] bis(2-aminoethylether)-N,N,N′,N′-tetraacetic acid (EGTA, Aldrich, Germany, cat. no. 23, 453-2), 1 mM DTT, 10% (w/v) glycerol, 0.5 M sucrose (Sigma, Germany, cat. no. S0389) by gel filtration on a PD10 desalting column (Amersham, Sweden, cat. no. 17-0851-01). Aliquots were shock frozen in liquid nitrogen and stored at −80° C.
Activation of Mnk1 and Mnk2a was at a concentration of 2.5 μM of either purified GST-Mnk1 or GST-Mnk2a by incubation with 150 nM pre-activated NHis-ERK2 (see ERK2 assay for preparation) and 50 μM adenosine triphosphate (ATP, Sigma, cat. no. A2699) in a buffer comprising 20 mM N-(2-hydroxyethyl)piperazine-N′-(2-ethanesulfonic acid) (HEPES, Fluka, Germany, cat. no 54459)/potassium hydroxide (KOH, Roth, Germany, cat. no 6751.1) pH 7.4, 10 mM magnesium chloride (MgCl2, Sigma, Germany, cat. no. M2670), 0.25 mM DTT, 0.05% (w/v) polyoxyethylene 20 stearylether (Brij 78, Sigma, Germany, cat. no. P4019) (HMDB buffer) for 45 min at 30° C. After the incubation, the preparation was aliquoted into single-use samples, shock frozen in liquid nitrogen, stored at −80° C. and utilized for Mnk1 or Mnk2a kinase assays as detailed below.
The serine residue phosphorylated by Mnk kinases is underlined.
(In fluorescence polarisation assays a small probe gives low polarisation when free and higher when bound to something large.)
Regarding `COC(=O)c1sc2ncnc(Nc3ccc(F)cc3OC(C)CCNS(C)(=O)=O)c2c1C` (stereo not shown) [Compound 13, Methyl 4-(4-fluoro-2-(4-(methylsulfonamido)butan-2yloxy)phenylamino)-5-methyl-thieno[2,3-d]pyrimidine-6-carboxylate], the IC50 is 90 nM. `COC(=O)c1sc2ncnc(Nc3ccc(F)cc3OC(C)CCNC(C)=O)c2c1C` (stereo not shown) [Compound 13-2, Methyl 4-(2-(4-acetamidobutan-2-yloxy)-4-fluorophenyl-amino)-5-methyl-thieno[2,3-d]pyrimidine-6-carboxylate]: the IC50 was found to be 471 nM. As to `COC(=O)c1sc2ncnc(Nc3ccc(F)cc3OC(C)CCNC(=O)C(C)C)c2c1C` (stereo not shown) [Compound 13-3, Methyl 4-(4-fluoro-2-(4-isobutyramido-butan-2-yloxy)-phenylamino)-5-methylthieno[2,3-d]pyrimidine-6-carboxylate], the IC50 was determined as 677 nM. Take `CCCCNC(=O)NCCC(C)Oc1cc(F)ccc1Nc1ncnc2sc(C(=O)OC)c(C)c12` (stereo not shown) [Compound 13-4, Methyl 4-(2-(4-(3-butylureido)-butan-2-yloxy)-4-fluorophenyl-amino)-5-methylthieno[2,3-d]pyrimidine-6-carboxylate]: the IC50 amounted to 898 nM. In the case of `COC(=O)c1sc2ncnc(Nc3ccc(F)cc3OC(C)CCN(C)C)c2c1C` (stereo not shown) [Compound 14] it was 1020 nM. In the case of `COC(=O)c1sc2ncnc(Nc3cccnc3OC(C)CCN)c2c1C` (stereo not shown) [Compound 15-2, Methyl 4-(2-((4-aminobutan-2yloxy)pyridin-3ylamino)-5-methyl-thieno[2,3-d]pyrimidine-6-carboxylate trifluoroacetate] it was 174 nM; in that of `Cc1c(C(=O)NCCCN(C)C)sc2ncnc(Nc3cccnc3OC(C)CCN)c12` (stereo not shown) [Compound 16-3, 4-(2-(4-Aminobutan-2yloxy)pyridin-3-ylamino)-N-(3-(dimethylamino)propyl)-5-methylthieno[2,3-d]pyrimidine-6-carboxamide bis(2,2,2-trifluoroacetate)], 74 nM; in that of `Cc1c(C(N)=O)sc2ncnc(Nc3cccnc3OC(C)CCN)c12` (stereo not shown) [Compound 16-4], 44 nM. To `COC(=O)c1sc2ncnc(Nc3ccc(F)cc3OC(CN)CN)c2c1C` [Compound 18-2, Methyl 4-(2-(1,3-diaminopropan-2-yloxy)-4-fluorophenylamino)-5-methylthieno[2,3-d]pyrimidine-6-carboxylate bis(trifluoroacetate)] belongs 691 nM; to `COC(=O)c1sc2ncnc(Nc3ccc(F)cc3OC(CN)CNC(C)=O)c2c1C` (stereo not shown) [Compound 19-1, Methyl 4-(2-(1-acetamido-3-aminopropan-2-yloxy)-4-fluorophenylamino)-5-methylthieno[2,3-d]pyrimidine-6-carboxylate trifluoroacetate], 1530 nM.

As to `COC(=O)c1sc2ncnc(Nc3ccc(F)cc3OC(CN)CNS(C)(=O)=O)c2c1C` (stereo not shown) [Compound 19-2, Methyl 4-(2-(1-amino-3-(methyl-sulfonamido)-propan-2-yloxy)-4-fluoro-phenylamino)-5-methylthieno[2,3-d]pyrimidine-6-carboxylate trifluoroacetate], the IC50 amounted to 1170 nM. On to `COC(=O)c1sc2ncnc(Nc3ccc(F)cc3OC(C)CC(C)(C)O)c2c1C` (stereo not shown) [Compound 20-1, Methyl 4-(4-fluoro-2-(4-hydroxy-4-methylpentan-2-yloxy)phenylamino)-5-methyl-thieno[2,3-d]pyrimidine-6-carboxylate], for which the IC50 was determined as 142 nM.

Consider `Cc1c(C(=O)O)sc2ncnc(Nc3ccc(F)cc3OC(C)CC(C)(C)O)c12` (stereo not shown) [Compound 20-2, 4-(4-fluoro-2-(4-hydroxy-4-methylpentan-2-yloxy)phenylamino)-5-methyl-thieno[2,3-d]pyrimidine-6-carboxylic acid], for which the IC50 stood at 25 nM.

The IC50 is the concentration that inhibits the measured activity by half.
